System: human fibrosarcoma cell HT-1080
Assay: Aminolevulinic acid labeling with or without iron ion and reducing agent (positive rate)
Type: cell-based
Conditions: 0.3 mM, 37° C., 60 min
Text: In accordance with the conventional method, human fibrosarcoma cell HT-1080 (DS Pharma Biomedical Co., Ltd.) and normal human dermal fibroblast cell NHDF (Lonza) in culture were harvested with trypsin (Invitrogen). The cell suspension of the harvested cancer cells was centrifuged, and the supernatant was removed. The cells were then resuspended with Dulbecco's PBS (+) (Nissui Pharmaceutical Co., Ltd.) and centrifuged, and the supernatant was removed again.
The number of the cells was counted using a hemacytometer in accordance with the conventional method, and then 10^5 to 10^6 cells per sample (cell suspension) was aliquoted. The sample was centrifuged to remove the supernatant. In the case an iron ion and a reducing agent were added, 0.3 mM of aminolevulinic acid (trade name: 5-AMINOLEVULINATE HYDROCHLORIDE, Cosmo Bio Co., Ltd.), 0.3 mM of FeCl2 and 0.3 mM of ascorbic acid dissolved in Dulbecco's PBS (+) were added thereto, and the cells were suspended well. In the case an iron ion and a reducing agent were not added, 0.3 mM of aminolevulinic acid dissolved in Dulbecco's PBS (+) was added singly, and the cells were suspended well. Each of the mixture was then allowed to react at 37° C. for 60 minutes. […]
The fluorescence filter set: EX (excitation wavelength) 402±7.5, DM 430 or longer, BA (fluorescence wavelength) 625±15.

NCC(=O)CCC(=O)O [aminolevulinic acid, 5-amino-4-oxopentanoic acid] was tested, and the “Positive rate (Fibroblast sarcoma cell (HT-1080))” value (Ascorbic acid 0, FeC12 0) was 97.3% and the “Positive rate (Fibroblast sarcoma cell (HT-1080))” value (Ascorbic acid 0.3 mM, FeC12 0.3 mM) was 79.3%.
